Measured values reported in patent US10183973B2, “Solvate of cyclic peptide compound, preparation method for same, and uses thereof” (SHANGHAI TECHWELL BIOPHARMACEUTICAL CO., LTD, priority 2014, dated 2019).
*1 amine or outer side, *2 acyl side, *3 side chain or, on linkers, in order; H or OH if unused. Where a SMILES comes first, the peptide text is derived from it. Bridges are numbered along the chain shown (N, C = ends). [ ]: non-standard residue; d: D form. The star is where a group is joined. hTyr(3S-OH,4S-OH,3'-OSO3H) = N[C@H](C(=O)O)[C@H](O)[C@@H](O)c1ccc(O)c(OS(=O)(=O)O)c1; Orn(4R-OH,5R-OH) = O=C([C@H](C[C@@H](O)[C@@H](O)N[*:3])N[*:1])[*:2]; Pro(3S-OH,4S-Me) = C[C@H]1CN[C@H](C(=O)O)[C@H]1O; X1 = CCCCCOc1ccc(-c2cc(-c3ccc(C(=O)*)cc3)no2)cc1; Gln(3R-OH) = NC(=O)C[C@@H](O)[C@H](N)C(=O)O; Hyp = O=C(O)[C@@H]1C[C@@H](O)CN1

Assay: Purity and stability test (HPLC purity after sealed storage at 25° C. for 30 days)
Type: physicochemical
Details: for Purity of initial sample: HPLC purity before storage (baseline of stability test); for Purity of sample after stored ar 25° C. for 30 days: sealed, HPLC purity
Text: High performance liquid chromatography (HPLC) is a common method for detecting the purity of a compound, wherein a liquid is used as the mobile phase and a high-pressure transfusion system is used for pumping the mobile phase, such as single solvents with different polarities or a mixture of solvents at different proportions, buffers, into a column packed with a stationary phase. Each component is separated in the column, and then enters into a detector for detection, thereby analyzing a sample. In the present invention, HPLC is used for determining the purity of the compound of formula I and studying the stability of a sample.
HPLC detection method is listed as follows:
Analysis Column: YMC-ODS 250×4.6 mm, 5 μm;
Mobile phase: acetonitrile:phosphate buffer (pH 3.0)=45:70;
Column temperature: 35° C.;
Diluent: aqueous phosphate buffer;
Detection wavelength: 210 nm;
In this Example, the purity and stability of samples obtained in Comparative Examples and Examples were compared. The used method is described as follows:
The solvate of the compound of formula I prepared in Examples 2, the crystal of B82 type obtained in Comparative Example 1 and amorphous solids obtained in Example 1 were taken and sealed at 25° C. for 30 days respectively. And then the content of impurities in the sample was analyzed. Results for comparing the stability of the solvate of the compound of formula I according to the present invention, the crystal of B82 type and the amorphous solid are shown in the following table: […]

Structure (SMILES) | Purity of initial sample | Purity of sample after stored ar 25° C. for 30 days | stability compared with crystal of B82 type (solid-state stability, in words)
CCCCCOc1ccc(-c2cc(-c3ccc(C(=O)N[C@H]4C[C@@H](O)[C@@H](O)NC(=O)[C@@H]5[C@@H](O)[C@@H](C)CN5C(=O)[C@H]([C@H](O)CC(N)=O)NC(=O)[C@H]([C@H](O)[C@@H](O)c5ccc(O)c(OS(=O)(=O)[O-])c5)NC(=O)[C@@H]5C[C@@H](O)CN5C(=O)[C@H]([C@@H](C)O)NC4=O)cc3)no2)cc1.[Na+] [Amorphous solids, Micafungin Sodium] (X1-[Orn(4R-OH,5R-OH)]T[Hyp][hTyr(3S-OH,4S-OH,3'-OSO3H)][Gln(3R-OH)][Pro(3S-OH,4S-Me)]; lactam 1-C) | 99.38% | 89.27% | –
CCCCCOc1ccc(-c2cc(-c3ccc(C(=O)N[C@H]4C[C@@H](O)[C@@H](O)NC(=O)[C@@H]5[C@@H](O)[C@@H](C)CN5C(=O)[C@H]([C@H](O)CC(N)=O)NC(=O)[C@H]([C@H](O)[C@@H](O)c5ccc(O)c(OS(=O)(=O)[O-])c5)NC(=O)[C@@H]5C[C@@H](O)CN5C(=O)[C@H]([C@@H](C)O)NC4=O)cc3)no2)cc1.[Na+] [Crystal of B82 type, Micafungin Sodium] (X1-[Orn(4R-OH,5R-OH)]T[Hyp][hTyr(3S-OH,4S-OH,3'-OSO3H)][Gln(3R-OH)][Pro(3S-OH,4S-Me)]; lactam 1-C) | 99.50% | 96.98% | –
CCCCCOc1ccc(-c2cc(-c3ccc(C(=O)N[C@H]4C[C@@H](O)[C@@H](O)NC(=O)[C@@H]5[C@@H](O)[C@@H](C)CN5C(=O)[C@H]([C@H](O)CC(N)=O)NC(=O)[C@H]([C@H](O)[C@@H](O)c5ccc(O)c(OS(=O)(=O)[O-])c5)NC(=O)[C@@H]5C[C@@H](O)CN5C(=O)[C@H]([C@@H](C)O)NC4=O)cc3)no2)cc1.[Na+] [Solvate of the compound of formula I, Sodium 5-[(1S,2S)-2-[(3S,6S,9S,11R,15S,18S,20R,21R,24S,25S,26S)-3-[(R)-2-carbamoyl-1-hydroxyethyl]-11,20,21,25-tetrahydroxy-15-[(R)-1-hydroxyethyl]-26-methyl-2,5,8,14,17,23-hexaoxo-18-[4-[5-(4-pentoxyphenyl)isoxazol-3-yl]benzoylamino]-1,4,7,13,16,22-hexaazatricyclo[22.3.0.0^9,13]heptacosan-6-yl]-1,2-dihydroxyethyl]-2-hydroxy phenyl sulfate] (X1-[Orn(4R-OH,5R-OH)]T[Hyp][hTyr(3S-OH,4S-OH,3'-OSO3H)][Gln(3R-OH)][Pro(3S-OH,4S-Me)]; lactam 1-C) | 99.55% | 99.50% | better than that of the crystal of B82 type
